Assay results published in ChEMBL document CHEMBL1153679, “Structural requirements for biological activity of the marine alkaloid ascididemin” (Bioorg Med Chem Lett, 1995).
In brackets after ≈: the same amount, converted by molar mass.

Tests used:
Escherichia coli = experiment: Antimicrobial activity against gram negative Escherichia coli at a dose of 120 ug; format: functional
Candida albicans [1] = experiment: Minimum inhibitory concentration against Candida albicans fungus at a dose of 120 ug; format: functional
Trichophyton benhamiae = experiment: Antimicrobial activity against Trichophyton mentagrophytes fungus at a dose of 120 ug; format: functional
P388 = experiment: In vitro cytotoxic activity against mouse leukemia (P388 ) cell line; format: functional, cell-based
Amorphotheca resinae = experiment: Antimicrobial activity against Cladosporium resinae fungus at a dose of 120 ug; format: functional
Bacillus subtilis = experiment: Antimicrobial activity against gram positive Bacillus subtilis at a dose of 120 ug; format: functional
Pseudomonas aeruginosa = experiment: Antimicrobial activity against gram negative Pseudomonas aeruginosa at a dose of 120 ug; format: functional
BSC-1 [2] = experiment: In vitro cytotoxic activity against non-malignant african green monkey kidney cell-line (BSC-1); ranges from 3.5-4.5 mm; format: functional, Cercopithecidae
Candida albicans [3] = experiment: Antimicrobial activity against Candida albicans fungus at a dose of 120 ug; format: functional
BSC-1 [4] = experiment: In vitro cytotoxic activity against non-malignant african green monkey kidney cell-line (BSC-1); ranges from 4.5-5 mm; format: functional, Cercopithecidae
CHO [5] = experiment: In vitro cytotoxic activity against DNA-double strand break repair deficient Chinese Hamster Ovary (CHO) cell-line xrs-6; format: functional, cell-based; details: Cricetulus griseus
CHO [6] = experiment: In vitro cytotoxic activity towards DNA-double strand break repair deficient Chinese Hamster Ovary (CHO) cell-line EM9; format: functional, cell-based; details: Cricetulus griseus
CHO [7] = experiment: Hypersensitivity Factor (HF2) towards DNA-double strand break repair deficient Chinese Hamster Ovary (CHO) cell-line EM9 versus wild type BR1([…]); format: functional, Cricetulus griseus
MCF7 = experiment: In vitro cytotoxic activity against human breast (MCF-7) cell line; format: functional, cell-based
Candida albicans [8] = experiment: Antimicrobial activity against Candida albicans fungus at a dose of 120 microg; format: functional
CHO [9] = experiment: Hypersensitivity Factor(HF) against DNA-double strand break repair deficient Chinese Hamster Ovary (CHO) cell-line xrs-6 versus wild type BR1(IC50 BRI/IC50 xrs-6); format: functional, Cricetulus griseus
HCT-116 = experiment: In vitro cytotoxic activity against human colon (HCT116) cell line; format: functional, cell-based
CHO [10] = experiment: Hypersensitivity Factor(HF) towards DNA-double strand break repair deficient Chinese Hamster Ovary (CHO) cell-line xrs-6 versus wild type BR1(IC50 BRI/IC50 xrs-6); format: functional, Cricetulus griseus
CHO [11] = experiment: In vitro cytotoxic activity against DNA-double strand break repair deficient Chinese Hamster Ovary (CHO) cell-line EM9; format: functional, cell-based; details: Cricetulus griseus
Candida albicans [12] = experiment: Minimum inhibitory concentration against Candida albicans fungus at a dose of 120 microg; format: functional

Row | Structure (SMILES) | Excess zone radius (Escherichia coli) [mm] | MIC (Candida albicans [1]) [µg/mL] | Excess zone radius (Trichophyton benhamiae) [mm] | IC50 (P388) [µM] | Excess zone radius (Amorphotheca resinae) [mm] | Excess zone radius (Bacillus subtilis) [mm] | Excess zone radius (Pseudomonas aeruginosa) [mm] | Excess zone radius (BSC-1 [2]) [mm] | Excess zone radius (Candida albicans [3]) [mm] | Excess zone radius (BSC-1 [4]) [mm] | IC50 (CHO [5]) [µM] | IC50 (CHO [6]) [µM] | HF2 (CHO [7]) | IC50 (MCF7) [µM] | Excess zone radius (Candida albicans [8]) [mm] | HF (CHO [9]) | IC50 (HCT-116) [µM] | HF (CHO [10]) | IC50 (CHO [11]) [µM] | MIC (Candida albicans [12]) [µg/mL]
1 | Cc1c2c(nc3ccccc13)C(=O)c1ccccc1C2=O | 0 | 25 (≈ 91.5 µM) | 0 | 39 | 0 | 3 | 0 |  |  |  |  |  |  |  |  |  |  |  |  | 
2 | Cc1c2c(nc3ccccc13)C(=O)c1cccnc1C2=O | 0 |  | 0 | 56 | 6 | 10 | 0 | 3.5 | 1 |  |  |  |  |  |  |  |  |  |  | 
3 | O=C1c2cccnc2-c2nccc3c2c1nc1ccccc13 [ASCIDIDEMIN] | 10 |  | 0 | 0.4 | 10 | 14 | 0 |  |  | 4.5 | 0.03 | 0.3 | 1 | 0.3 | 11 | 10 | 0.3 |  |  | 
4 | O=C1c2ccccc2-c2nccc3c2c1nc1ccccc13 [BENZOSAMPANGINE] | 0 |  | 10 | 1.6 | 0 | 8 | 0 |  | 12 |  | 18 |  | 0.2 | > 350 |  |  | > 350 | 1 | 18 | 0.39 (≈ 1.38 µM)
